Reference: patent publication US20230062119A1, “USE OF BIOMARKERS IN IDENTIFYING PATIENTS THAT WILL BE RESPONSIVE TO TREATMENT WITH A PRMT5 INHIBITOR” (Merck Sharp & Dohme LLC, priority 2019, published 2023)
Read-outs that look alike come from different tables or passages of the source.

Molecular target: T1, Full-length (FL)-PRMT5-MEP50 enzyme complex (Homo sapiens, UniProt O14744)
T1 construct: Full-length (FL)-PRMT5-MEP50 enzyme complex (recombinant proteins from baculovirus-transfected Sf21 cells: FL-PRMT5; MW=73837 kDa and FL-MEP50; MW=38614); made in house; host or cells: baculovirus-transfected Sf21 insect cells
T1 sequence (O14744 whole entry): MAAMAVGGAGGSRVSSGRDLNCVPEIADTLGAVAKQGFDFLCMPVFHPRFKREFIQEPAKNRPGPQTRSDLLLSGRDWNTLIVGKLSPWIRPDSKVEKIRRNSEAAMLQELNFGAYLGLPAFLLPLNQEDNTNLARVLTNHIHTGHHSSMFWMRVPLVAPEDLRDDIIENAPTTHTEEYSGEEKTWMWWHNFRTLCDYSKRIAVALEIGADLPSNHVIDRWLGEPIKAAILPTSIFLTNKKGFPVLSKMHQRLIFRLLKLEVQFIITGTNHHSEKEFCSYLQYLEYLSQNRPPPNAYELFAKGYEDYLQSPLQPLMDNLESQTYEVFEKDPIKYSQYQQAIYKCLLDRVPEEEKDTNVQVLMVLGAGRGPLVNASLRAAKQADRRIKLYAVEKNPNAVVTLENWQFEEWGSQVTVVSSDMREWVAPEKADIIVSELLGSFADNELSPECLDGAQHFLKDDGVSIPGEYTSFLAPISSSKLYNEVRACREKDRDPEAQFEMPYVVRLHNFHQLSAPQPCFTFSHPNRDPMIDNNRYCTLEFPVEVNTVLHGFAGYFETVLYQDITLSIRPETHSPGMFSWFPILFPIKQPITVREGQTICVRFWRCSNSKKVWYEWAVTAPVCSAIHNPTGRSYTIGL
T1 sequence (Q9BQA1 whole entry partner): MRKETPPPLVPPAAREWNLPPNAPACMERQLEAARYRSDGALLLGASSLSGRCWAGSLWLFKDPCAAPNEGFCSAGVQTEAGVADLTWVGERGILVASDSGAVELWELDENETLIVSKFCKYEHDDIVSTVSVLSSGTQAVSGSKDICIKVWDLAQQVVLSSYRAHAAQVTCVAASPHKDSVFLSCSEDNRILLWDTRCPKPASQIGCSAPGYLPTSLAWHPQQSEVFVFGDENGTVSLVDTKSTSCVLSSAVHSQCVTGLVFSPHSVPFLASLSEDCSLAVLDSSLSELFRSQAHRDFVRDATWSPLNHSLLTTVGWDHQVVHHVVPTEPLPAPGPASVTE
Assay: PRMT5-MEP50 Enzyme Methylation Assay
Type: biochemical
Details: 1.0 nM PRMT5-MEP50, 75 nM biotinylated peptide, 15 μM SAM
Experimental: PRMT5-MEP50 biochemical assay is a direct measurement of the methylation activity of the enzyme complex on a short peptide substrate derived from the N-terminus of H4 histone. Methylation experiment is performed with recombinant PRMT5-MEP50 protein complex. The assessment of inhibitory effect of small molecules is measured by the effectiveness of the compounds to inhibit this reaction (EC50).
In this assay, the potency (EC50) of each compound was determined from a twenty-point (1:2 serial dilution; top compound concentration of 100000 nM) titration curve using the following outlined procedure. To each well of a white ProxiPlus 384 well-plate, 100 nL of compound (1% DMSO in final assay volume of 10 μL) was dispensed, followed by the addition of 8 μL of 1× assay buffer (50 mM Bicine pH 8.0, 1 mM DTT, 0.004% Tween20, 0.01% BSA) containing 1.25 nM of Full-length (FL)-PRMT5-MEP50 enzyme complex (recombinant proteins from baculovirus-transfected Sf21 cells: FL-PRMT5; MW=[…] and FL-MEP50; MW=38614) and 1 μL of 150 μM S-(5′-Adenosyl)-L-Methionine Chloride (SAM). Plates were sealed and placed in a 37° C. humidified chamber for a 60 minutes pre-incubation with compound. Subsequently, each reaction was initiated by the addition of 1 μL 1× assay buffer containing 750 nM biotinylated H4R3(Mel) peptide. The final reaction in each well of 10 μL consists of 1.0 nM PRMT5-MEP50, 75 nM biotinylated-peptide, and 15 μM SAM. Methylation reactions proceeded for 150 minutes in a sealed plate at 37° C. Reactions were immediately quenched by the addition of 1 μL of 5% formic acid. Plates were then frozen and shipped to SAMDI™ Tech Inc. to determine the percent conversion from H4R3(Mel) to H4R3(Me2). Dose-response curves were generated by plotting percent effect (% product conversion; Y-axis) vs. Log 10 compound concentrations (X-axis). EC50 values were determined by non-linear regression according to models for either sigmoidal (4 parameters) or biphasic (7 parameters) dose-response curves.

[1] = one EC50: 4 parameters single site sigmoidal model, EC50 1: first value of 7 parameters biphasic model, read-out: Enzyme Methylation Assay (EC50 or EC50 1)
[2] = second EC50 of 7 parameters biphasic model, read-out: Enzyme Methylation Assay (EC50 2)

Row | SMILES | EC50 [1] | EC50 [2]
1 | C[C@@]1(O)[C@@H](COc2ccc3cc(Br)c(N)nc3c2)C[C@@H](n2ccc3c(Cl)ncnc32)[C@@H]1O [Example 1, (1R,2S,3R,5R)-5-(((2-amino-3-bromoquinolin-7-yl)oxy)methyl)-3-(4-chloro-7H-pyrrolo[2,3-d]pyrimidin-7-yl)-1-methylcyclopentane-1,2-diol] | 0.5 nM | 56 nM
2 | C[C@@]1(O)[C@@H](COc2ccc3cc(Br)c(N)nc3c2)C[C@@H](n2ccc3c(N)ncnc32)[C@@H]1O [Example 2, (1R,2S,3R,5R)-5-(((2-amino-3-bromoquinolin-7-yl)oxy)methyl)-3-(4-amino-7H-pyrrolo[2,3-d]pyrimidin-7-yl)-1-methylcyclopentane-1,2-diol] | 0.5 nM | –
3 | C#C[C@@]1(O)[C@@H](COc2ccc3cc(Br)c(N)nc3c2)O[C@@H](n2ccc3c(N)ncnc32)[C@@H]1O [Example 3, (2R,3S,4R,5R)-2-(((2-amino-3-bromoquinolin-7-yl)oxy)methyl)-5-(4-amino-7H-pyrrolo[2,3-d]pyrimidin-7-yl)-3-ethynyltetrahydrofuran-3,4-diol] | 0.8 nM | 193 nM
4 | C[C@]1(CCc2ccc3cc(Br)c(N)nc3c2)O[C@@H](n2ccc3c(N)ncnc32)[C@H](O)[C@]1(C)O [Example 4, (2R,3S,4R,5R)-2-(2-(2-amino-3-bromoquinolin-7-yl)ethyl)-5-(4-amino-7H-pyrrolo[2,3-d]pyrimidin-7-yl)-2,3-dimethyltetrahydrofuran-3,4-diol] | 2.4 nM | 288 nM
5 | Nc1nc2cc(O[C@H]3CC[C@@]4(O)[C@@H]3O[C@@H](n3ccc5c(Cl)ncnc53)[C@@H]4O)ccc2cc1Br [Example 5, (2R,3R,3aS,6S,6aR)-6-((2-amino-3-bromoquinolin-7-yl)oxy)-2-(4-chloro-7H-pyrrolo[2,3-d]pyrimidin-7-yl)hexahydro-2H-cyclopenta[b]furan-3,3a-diol] | 0.8 nM | –
6 | Nc1nc2cc(O[C@H]3CC[C@@]4(O)[C@@H]3O[C@@H](n3ccc5c(N)ncnc53)[C@@H]4O)ccc2cc1Br [Example 6, (2R,3R,3aS,6S,6aR)-6-((2-amino-3-bromoquinolin-7-yl)oxy)-2-(4-amino-7H-pyrrolo[2,3-d]pyrimidin-7-yl)hexahydro-2H-cyclopenta[b]furan-3,3a-diol] | 0.6 nM | –
7 | Cc1ncnc2c1ccn2[C@@H]1O[C@@H]2[C@@H](Oc3ccc4cc(Br)c(N)nc4c3)CC[C@]2(O)[C@H]1O [Example 7, (2R,3R,3aS,6S,6aR)-6-((2-amino-3-bromoquinolin-7-yl)oxy)-2-(4-methyl-7H-pyrrolo[2,3-d]pyrimidin-7-yl)hexahydro-2H-cyclopenta[b]furan-3,3a-diol] | 0.7 nM | –
8 | Cc1ncnc2c1ccn2[C@@H]1O[C@@H]2[C@H](Cc3ccc4cc(Br)c(N)nc4c3)CC[C@]2(O)[C@H]1O [Example 8, (2R,3R,3aS,6S,6aR)-6-((2-amino-3-bromoquinolin-7-yl)methyl)-2-(4-methyl-7H-pyrrolo[2,3-d]pyrimidin-7-yl)hexahydro-2H-cyclopenta[b]furan-3,3a-diol] | 0.5 nM | –
9 | Nc1nc2cc(C[C@@H]3CC[C@@]4(O)[C@@H]3O[C@@H](n3ccc5c(N)ncnc53)[C@@H]4O)ccc2cc1Br [Example 9, (2R,3R,3aS,6S,6aR)-6-((2-amino-3-bromoquinolin-7-yl)methyl)-2-(4-amino-7H-pyrrolo[2,3-d]pyrimidin-7-yl)hexahydro-2H-cyclopenta[b]furan-3,3a-diol] | 0.3 nM | –
10 | C[C@@]1(O)[C@@H](COc2ccc3cc(Br)c(N)nc3c2)O[C@@H](n2ccc3c(N)ncnc32)[C@@H]1O [Example 10, (2R,3S,4R,5R)-2-(((2-amino-3-bromoquinolin-7-yl)oxy)methyl)-5-(4-amino-7H-pyrrolo[2,3-d]pyrimidin-7-yl)-3-methyltetrahydrofuran-3,4-diol] | 0.5 nM | 22 nM
11 | C[C@@]1(O)[C@@H](COc2ccc3cc(Br)c(N)nc3c2)O[C@@H](n2ccc3c(Cl)ncnc32)[C@@H]1O [Example 11, (2R,3S,4R,5R)-2-{[(2-amino-3-bromoquinolin-7-yl)oxy]methyl}-5-(4-chloro-7H-pyrrolo[2,3-d]pyrimidin-7-yl)-3-methyltetrahydrofuran-3,4-diol] | 0.9 nM | 501 nM
12 | C[C@]1(CCc2ccc3cc(Br)c(N)nc3c2)C[C@@H](n2ccc3c(N)ncnc32)[C@H](O)[C@@H]1O [Example 15, (1S,2R,3S,5R)-3-[2-(2-amino-3-bromo-7-quinolinyl)ethyl]-5-(4-amino-7H-pyrrolo[2,3-d]pyrimidin-7-yl)-3-methyl-1,2-cyclopentanediol] | 0.8 nM | –

Next, values leading:

Row | EC50 [1] | EC50 [2] | SMILES
13 | 33 nM | 20900 nM | COc1ncnc2c1ccn2[C@@H]1O[C@](C)(COc2ccc3cc(Br)c(N)nc3c2)[C@@H](O)[C@H]1O [Example 12, (2R,3S,4R,5R)-2-(((2-amino-3-bromoquinolin-7-yl)oxy)methyl)-5-(4-methoxy-7H-pyrrolo[2,3-d]pyrimidin-7-yl)-2-methyltetrahydrofuran-3,4-diol]
14 | 0.5 nM | 89 nM | C[C@]1(COc2ccc3cc(Br)c(N)nc3c2)O[C@@H](n2ccc3c(N)ncnc32)[C@H](O)[C@@H]1O [Example 13, (2R,3S,4R,5R)-2-(((2-amino-3-bromoquinolin-7-yl)oxy)methyl)-5-(4-amino-7H-pyrrolo[2,3-d]pyrimidin-7-yl)-2-methyltetrahydrofuran-3,4-diol]
15 | 1.3 nM | 182 nM | C[C@@]1(O)[C@@H](CCc2ccc3cc(Br)c(N)nc3c2)O[C@@H](n2ccc3c(N)ncnc32)[C@@H]1O [Example 14, (2R,3S,4R,5R)-2-(2-(2-amino-3-bromoquinolin-7-yl)ethyl)-5-(4-amino-7H-pyrrolo[2,3-d]pyrimidin-7-yl)-3-methyltetrahydrofuran-3,4-diol]
16 | 0.4 nM | – | Cc1ncnc2c1ccn2[C@@H]1C[C@@H]2[C@H](Cc3ccc4cc(F)c(N)nc4c3)CC[C@]2(O)[C@H]1O [Example 16, (1S,2R,3aR,4S,6aR)-4-((2-amino-3-fluoroquinolin-7-yl)methyl)-2-(4-methyl-7H-pyrrolo[2,3-d]pyrimidin-7-yl)hexahydropentalene-1,6a(1H)-diol]
17 | 0.3 nM | – | Cc1ncnc2c1ccn2[C@@H]1C[C@@H]2[C@H](Cc3ccc4cc(Cl)c(N)nc4c3)CC[C@]2(O)[C@H]1O [Example 17, (1S,2R,3aR,4S,6aR)-4-((2-amino-3-chloroquinolin-7-yl)methyl)-2-(4-methyl-7H-pyrrolo[2,3-d]pyrimidin-7-yl)hexahydropentalene-1,6a(1H)-diol]
18 | 0.4 nM | 229 nM | Cc1ncnc2c1ccn2[C@@H]1C[C@@H]2[C@@H](Cc3ccc4cc(F)c(N)nc4c3)CC[C@]2(O)[C@H]1O [Example 18, (1S,2R,3aR,4R,6aR)-4-((2-amino-3-fluoroquinolin-7-yl)methyl)-2-(4-methyl-7H-pyrrolo[2,3-d]pyrimidin-7-yl)hexahydropentalene-1,6a(1H)-diol]
19 | 0.4 nM | – | Cc1ncnc2c1ccn2[C@@H]1C[C@@H]2[C@H](Cc3ccc4cc(Br)c(N)nc4c3)CC[C@]2(O)[C@H]1O [Example 19, (1S,2R,3aR,4S,6aR)-4-((2-amino-3-bromoquinolin-7-yl)methyl)-2-(4-methyl-7H-pyrrolo[2,3-d]pyrimidin-7-yl)hexahydropentalene-1,6a(1H)-diol]
